# In article PMC6429087, “Identification of Leishmania major UDP-Sugar Pyrophosphorylase Inhibitors Using Biosensor-Based Small Molecule Fragment Library Screening” (Molecules, 2019):
# Where two headings read alike, the source gives them in different places.
# Experiments:
# hUGP = target: T1, hUGP (Homo sapiens, UniProt Q16851); test: HPLC-based enzyme activity assay, hUGP; format: biochemical; conditions: 10% DMSO; for inhibition of hUGP (in words): 500 µM / high compound concentration; for decrease of hUGP activity: 500 µM compound
# T1 construct: made in house
# T1 sequence (Q16851 1-508): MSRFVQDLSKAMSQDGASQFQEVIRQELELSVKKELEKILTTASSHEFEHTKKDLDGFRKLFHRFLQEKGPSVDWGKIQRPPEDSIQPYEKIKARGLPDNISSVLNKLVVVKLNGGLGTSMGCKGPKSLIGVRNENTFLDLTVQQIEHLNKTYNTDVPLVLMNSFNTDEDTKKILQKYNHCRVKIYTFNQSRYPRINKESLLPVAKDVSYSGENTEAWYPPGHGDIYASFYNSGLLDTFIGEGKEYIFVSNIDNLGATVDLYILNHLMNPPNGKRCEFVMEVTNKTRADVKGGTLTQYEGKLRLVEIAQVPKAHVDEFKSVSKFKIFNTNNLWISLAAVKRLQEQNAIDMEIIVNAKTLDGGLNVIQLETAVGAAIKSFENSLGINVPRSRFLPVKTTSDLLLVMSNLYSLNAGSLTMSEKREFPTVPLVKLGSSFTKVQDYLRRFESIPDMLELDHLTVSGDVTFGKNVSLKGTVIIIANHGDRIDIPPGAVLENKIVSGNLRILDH
# Description: (§1) Compounds were tested at a concentration of 500 µM with 20 nM enzyme in an high-performance liquid chromatography (HPLC)-based assay at a final reaction volume of 100 µL. The DMSO concentration in the reaction was kept at 10%. The reaction buffer consisted of 10 mM Tris-HCl pH 8.0, 2 mM MgCl2, 10 mM NaCl, 0.005 U of inorganic pyrophosphatase (Thermo Fisher Scientific, Vilnius, Lithuania), and 1 mM Dithiothreitol (DTT) (for LmUSP and LmUGP only). Protein was incubated with the inhibitors and UTP (final concentration of 0.8 mM in reaction) for 30 min at room temperature, before the addition of the reaction buffer. […] The samples were spun down and the supernatants applied to a Dionex CarboPac™ PA10 column (Thermo Fisher Scientific, Sunnyvale, CA, USA). UDP-Gal or UDP-Glc (products) were separated from UTP (substrate), UMP, and UDP (both, UTP hydrolysis products) with a NaCl gradient elution ranging from 0 to 500 mM NaCl over 13 min at 0.6 mL/min. Absorption of the uracil moiety was detected at 260 nm. The peak area of UDP-Gal or UDP-Glc in reactions with inhibitors was compared to a control containing 10% DMSO. Protein concentrations were calculated from the measured UV-absorbance at 280 nm (Implen NanoPhotometer N60, Implen GmbH, München, Germany), and the proteins’ individual extinction coefficients were calculated using the online ProtParam tool (http://web.expasy.org/protparam/). […] Corresponding IC50 values were calculated by using nonlinear regression analysis with variable slope, in GraphPad Prism version 4.00 (GraphPad Software, San Diego, CA, USA).
# LmUGP = LmUGP (Leishmania major, UniProt Q4QDU3); test: HPLC-based enzyme activity assay, LmUGP (UDP-Glc production); format: biochemical; conditions: for inhibition at 500 µM: 500 µM compound, 10% DMSO; for IC50: 95% confidence intervals, concentrations 7 µM to 500 µM
# Description: as §1
# LmUSP [1] = target: T2, LmUSP (Leishmania major, UniProt D3G6S4); test: HPLC-based enzyme activity assay, LmUSP (UDP-Gal production); format: biochemical; conditions: for inhibition at 500 µM: 500 µM compound, 10% DMSO, read-out: inhibition of LmUSP activity (UDP-Gal production) compared to DMSO control; for IC50: 95% confidence intervals, concentrations 7 µM to 500 µM
# Description: as §1
# LmUSP [2] = target: T2, LmUSP; test: Bio-layer interferometry (BLI) binding to biotinylated LmUSP on Super Streptavidin biosensors; conditions: for Primary Binding Response: BLI primary screen, fragment 200 µM, 200 µM UTP in running buffer
# Description: A vector containing the His(6)-biotin acceptor peptide (BAP) tag was kindly provided by Prof. Mike Ferguson from the University of Dundee. The BAP tag was inserted in the XbaI and NdeI restrictions site of the previously described pET22b-LmUSP [21]. The plasmid with insert was then transformed into the E. coli BL21(DE3) expression strain, and LmUSP was expressed and purified, as described previously. Exactly 2 mg of TEV protease was added to cleave off the His tag. The protein was dialyzed in 3 × 1 L Buffer C (50 mM TRIS pH 8.0, 150 mM NaCl, 10 mM MgCl2). A concentration of 100 µM D-Biotin, 500 µM ATP, and […] BirA enzyme were added to the protein and incubated for 18 hr for biotinylation. The sample was concentrated to 11 mL, using a Vivaspin 20 30 kDa PES centrifugal concentrator (Sartorious, Stonehouse, United Kingdom). The protein was loaded onto a Superdex 200 XK26/60 equilibrated with Buffer C on the AKTA Pure at 4 °C. The eluted monomeric protein was then concentrated to 0.98 mg/mL using a Vivaspin 20 30 kDa PES centrifugal concentrator, and used for loading onto super streptavidin (SSA) biosensors (Fortebio, Shanghai, China, Part No. 18-5057, Lot No. 1612162).
# The loading response to SSA biosensors was measured to find the optimal protein concentration to be used for the screen. Briefly, biosensor tips were hydrated in assay buffer (50 mM Tris pH 8.0, 150 mM NaCl, 10 mM MgCl2) for a minimum of 5 min before being sequentially transferred to assay wells containing 1) assay buffer (60 s) to establish the baseline, 2) protein at 12.5, 25, or 50 µg/mL (900 s) to measure protein loading, and 3) assay buffer to assess the reversibility of protein binding to the sensor.
# For fragment screening, 16 SSA biosensors were prepared by loading LmUSP (12.5 µg/mL) for 900 s; free streptavidin sites were then blocked with biocytin (10 µg/mL) for 120 s, and finally washed in buffer W (50 mM Tris pH 8.0, 150 mM NaCl, 10 mM MgCl2, 200 µM UTP) for 60 s. In parallel, another 16 SSA sensors were loaded with 10 µg/mL biocytin alone, which acts as a quenching agent to block streptavidin sites on the sensor surface, and then washed with buffer W. These were used as reference sensors.
# Initial screening was performed with DDU fragment set (965 fragments) at a single point concentration of 200 µM. The assay consisted of a 60 s baseline step, a 60 s association step, and a 60 s dissociation step. The assay was repeated with the streptavidin blocked control biosensors. Response levels for each compound were calculated by baseline subtraction, and the subtraction of the reference responses from the LmUSP responses. From the initial putative hits, compounds were further validated in a […] concentration series using 3-fold dilutions of each fragment ranging from 500 µM to 2.05 µM. Data were processed, and kinetic parameters were calculated, using the ForteBio software. A visual inspection of curves alongside steady state fitting was used to identify fragments of interest.
# LmUSP [3] = target: T2, LmUSP; conditions: read-out: Km value of UTP; cited from earlier work
# [4] = test system: O=P(O)(O)O[C@H]1O[C@H](CO)[C@H](O)[C@H](O)[C@H]1O; test: purified protein, by the assay type; conditions: 0.8 mM UTP, 25 °C, pH 8.0
# [5] = BLI 7-point concentration series 2 µM to 500 µM, steady state fitting, read-out: Estimated KD
compound,measurement,setting,value
O=C(Cn1c(=O)[nH]c2ccccc2c1=O)Nc1ccc2[nH]ccc2c1 [#4],inhibition of hUGP (in words),hUGP,little effect
same,decrease of hUGP activity,hUGP,less than 20%
same,inhibition at 500 µM,LmUGP,> 95%
same,IC50,LmUGP,126 to 134 µM
same,inhibition at 500 µM,LmUSP [1],≥ 80%
same,IC50,LmUSP [1],135 to 175 µM
CC(Cc1c[nH]c2ccccc12)NC(=O)Cn1c(=O)[nH]c2ccccc2c1=O (stereo not shown) [#8A],IC50,LmUGP,> 250 µM
same,IC50,LmUSP [1],> 250 µM
O=C(Cn1c(=O)[nH]c2ccccc2c1=O)NCCc1c[nH]c2ccc(Cl)cc12 [#8B],inhibition of hUGP (in words),hUGP,clear inhibition
same,IC50,LmUGP,55.1 to 69.1 µM
same,IC50,LmUSP [1],47.2 to 66.4 µM
COc1ccc2[nH]cc(CCNC(=O)Cn3c(=O)[nH]c4ccccc4c3=O)c2c1 [#8C],IC50,LmUGP,> 250 µM
same,IC50,LmUSP [1],> 250 µM
O=C(Cn1cnc2ccccc2c1=O)NCCc1c[nH]c2ccc(Cl)cc12 [#8D],inhibition of hUGP (in words),hUGP,clear inhibition
same,IC50,LmUGP,193 to 242 µM
same,IC50,LmUSP [1],170 to 195 µM
O=C(Cn1cnc2ccccc2c1=O)NCCc1c[nH]c2ccc(F)cc12 [#8E],inhibition of hUGP (in words),hUGP,clear inhibition
same,IC50,LmUGP,38 to 46.8 µM
same,IC50,LmUSP [1],40.4 to 46.3 µM
O=C(Cn1c(=O)[nH]c2ccccc2c1=O)NCCc1c[nH]c2ccccc12 [#8],inhibition of hUGP (in words),hUGP,little effect
same,decrease of hUGP activity,hUGP,less than 20%
same,inhibition at 500 µM,LmUGP,> 95%
same,IC50,LmUGP,120 to 151 µM
same,inhibition at 500 µM,LmUSP [1],≥ 80%
same,IC50,LmUSP [1],78.1 to 107 µM
O=C(O)Cc1cccc(C(F)(F)F)c1 [DDD00095351],Kd,LmUSP [2]; [5],83.3 µM
same,Primary Binding Response,LmUSP [2],0.127
COCCNC(=O)n1c(=O)oc2ccccc21 [DDD00102262],Kd,LmUSP [2]; [5],72.6 µM
same,Primary Binding Response,LmUSP [2],0.077
Cn1c(=O)n(CCN)c(=O)c2ccccc21 [DDD00808259],Kd,LmUSP [2]; [5],67.6 µM
same,Primary Binding Response,LmUSP [2],0.1728
CC(C(=O)O)c1cccc(F)c1 (stereo not shown) [DDD01305586],Kd,LmUSP [2]; [5],60.1 µM
same,Primary Binding Response,LmUSP [2],0.1541
"O=c1ccn([C@@H]2O[C@H](COP(=O)(O)OP(=O)(O)OP(=O)(O)O)[C@@H](O)[C@H]2O)c(=O)[nH]1 [UTP, uridine triphosphate, reference compound]",Km,LmUSP [3],100 µM
same,Kd,LmUSP [2],89 µM
LmUSP F383R mutant (Leishmania major; F383R),Km,[4]; other: LmUSP F383R,364.00 ± 22.20 µM
same,Vmax,[4]; other: LmUSP F383R,14.8 µmol/min/mg
same,kcat,[4]; other: LmUSP F383R,17.3 s⁻¹
same,kcat/Km,[4]; other: LmUSP F383R,47000 M⁻¹ s⁻¹
LmUSP V199W mutant (Leishmania major; V199W),Km,[4]; other: LmUSP V199W,1007.25 ± 18.03 µM
same,Vmax,[4]; other: LmUSP V199W,76.8 µmol/min/mg
same,kcat,[4]; other: LmUSP V199W,90.2 s⁻¹
same,kcat/Km,[4]; other: LmUSP V199W,89000 M⁻¹ s⁻¹
LmUSP V330W mutant (Leishmania major; V330W),Km,[4]; other: LmUSP V330W,1255.00 ± 145.66 µM
same,Vmax,[4]; other: LmUSP V330W,272 µmol/min/mg
same,kcat,[4]; other: LmUSP V330W,319 s⁻¹
same,kcat/Km,[4]; other: LmUSP V330W,255000 M⁻¹ s⁻¹
LmUSP V330W/F383R mutant (Leishmania major; F383R/V330W),Km,[4]; other: LmUSP V330W/F383R,276.45 ± 51.26 µM
same,Vmax,[4]; other: LmUSP V330W/F383R,21.8 µmol/min/mg
same,kcat,[4]; other: LmUSP V330W/F383R,25.6 s⁻¹
same,kcat/Km,[4]; other: LmUSP V330W/F383R,93000 M⁻¹ s⁻¹
LmUSP wild type (Leishmania major),Km,[4]; other: wild-type LmUSP,529.20 ± 24.60 µM
same,Vmax,[4]; other: wild-type LmUSP,184 µmol/min/mg
same,kcat,[4]; other: wild-type LmUSP,216 s⁻¹
same,kcat/Km,[4]; other: wild-type LmUSP,409000 M⁻¹ s⁻¹
